Source: ChEMBL document CHEMBL1158870, “Antitumor agents. 180. Chemical Studies and cytotoxic evaluation of cumingianosides and cumindysoside A, antileukemic triterpene glucosides with a 14,18-cycloapotirucallane skeleton” (1997)

Legend:
[1] = tested on: CCRF-CEM; test: Cytotoxicity against human CCRF-CEM cells by SRB assay; type: functional
[2] = Cytotoxicity against human HL60(TB) cells by SRB assay; type: functional, HL-60(TB); conditions: HL-60
[3] = tested on: K562; test: Cytotoxicity against human K562 cells by SRB assay; type: functional
[4] = tested on: MOLT-4; test: Cytotoxicity against human MOLT4 cells by SRB assay; type: functional
[5] = tested on: RPMI-8226; test: Cytotoxicity against human RPMI8226 cells by SRB assay; type: functional
[6] = tested on: SR; test: Cytotoxicity against human SR cells by SRB assay; type: functional
[7] = tested on: A549; test: Cytotoxicity against human A549 cells by SRB assay; type: functional
[8] = tested on: EKVX; test: Cytotoxicity against human EKVX cells by SRB assay; type: functional
[9] = tested on: HOP-62; test: Cytotoxicity against human HOP62 cells by SRB assay; type: functional
[10] = tested on: HOP-92; test: Cytotoxicity against human HOP92 cells by SRB assay; type: functional
[11] = tested on: NCI-H226; test: Cytotoxicity against human NCI-H226 cells by SRB assay; type: functional
[12] = tested on: NCI-H23; test: Cytotoxicity against human NCI-H23 cells by SRB assay; type: functional
[13] = tested on: NCI-H322M; test: Cytotoxicity against human NCI-H322M cells by SRB assay; type: functional
[14] = tested on: NCI-H460; test: Cytotoxicity against human NCI-H460 cells by SRB assay; type: functional
[15] = tested on: NCI-H522; test: Cytotoxicity against human NCI-H522 cells by SRB assay; type: functional
[16] = tested on: COLO 205; test: Cytotoxicity against human COLO205 cells by SRB assay; type: functional
[17] = tested on: HCC 2998; test: Cytotoxicity against human HCC2998 cells by SRB assay; type: functional
[18] = tested on: HCT-116; test: Cytotoxicity against human HCT116 cells by SRB assay; type: functional
[19] = tested on: HCT-15; test: Cytotoxicity against human HCT15 cells by SRB assay; type: functional
[20] = tested on: HT-29; test: Cytotoxicity against human HT29 cells by SRB assay; type: functional
[21] = tested on: KM12; test: Cytotoxicity against human KM12 cells by SRB assay; type: functional
[22] = tested on: SW-620; test: Cytotoxicity against human SW620 cells by SRB assay; type: functional
[23] = tested on: SF-268; test: Cytotoxicity against human SF268 cells by SRB assay; type: functional
[24] = tested on: SF-295; test: Cytotoxicity against human SF295 cells by SRB assay; type: functional
[25] = tested on: SNB-19; test: Cytotoxicity against human SNB19 cells by SRB assay; type: functional
[26] = tested on: SNB-75; test: Cytotoxicity against human SNB75 cells by SRB assay; type: functional
[27] = tested on: U-251; test: Cytotoxicity against human U251 cells by SRB assay; type: functional
[28] = tested on: LOX IMVI; test: Cytotoxicity against human LOXIMVI cells by SRB assay; type: functional
[29] = tested on: Malme-3M; test: Cytotoxicity against human MALME-3M cells by SRB assay; type: functional
[30] = tested on: M14; test: Cytotoxicity against human M14 cells by SRB assay; type: functional
[31] = tested on: SK-MEL-2; test: Cytotoxicity against human SK-MEL-2 cells by SRB assay; type: functional
[32] = tested on: SK-MEL-28; test: Cytotoxicity against human SK-MEL-28 cells by SRB assay; type: functional
[33] = tested on: SK-MEL-5; test: Cytotoxicity against human SK-MEL-5 cells by SRB assay; type: functional
[34] = tested on: UACC-257; test: Cytotoxicity against human UACC257 cells by SRB assay; type: functional
[35] = tested on: UACC-62; test: Cytotoxicity against human UACC62 cells by SRB assay; type: functional
[36] = tested on: IGROV-1; test: Cytotoxicity against human IGROV1 cells by SRB assay; type: functional
[37] = tested on: OVCAR-3; test: Cytotoxicity against human OVCAR-3 cells by SRB assay; type: functional
[38] = tested on: OVCAR-4; test: Cytotoxicity against human OVCAR4 cells by SRB assay; type: functional
[39] = tested on: OVCAR-5; test: Cytotoxicity against human OVCAR5 cells by SRB assay; type: functional
[40] = tested on: OVCAR-8; test: Cytotoxicity against human OVCAR8 cells by SRB assay; type: functional
[41] = tested on: SK-OV-3; test: Cytotoxicity against human SKOV3 cells by SRB assay; type: functional
[42] = Cytotoxicity against human 786-O cells by SRB assay; type: functional; conditions: 786-0
[43] = tested on: A498; test: Cytotoxicity against human A498 cells by SRB assay; type: functional
[44] = tested on: ACHN; test: Cytotoxicity against human ACHN cells by SRB assay; type: functional
[45] = tested on: CAKI-1; test: Cytotoxicity against human Caki1 cells by SRB assay; type: functional
[46] = tested on: RXF 393; test: Cytotoxicity against human RXF393 cells by SRB assay; type: functional
[47] = tested on: SN12C; test: Cytotoxicity against human SN12C cells by SRB assay; type: functional
[48] = tested on: UO-31; test: Cytotoxicity against human UO31 cells by SRB assay; type: functional
[49] = tested on: PC-3; test: Cytotoxicity against human PC3 cells by SRB assay; type: functional
[50] = tested on: DU-145; test: Cytotoxicity against human DU145 cells by SRB assay; type: functional
[51] = tested on: MCF7; test: Cytotoxicity against human MCF7 cells by SRB assay; type: functional
[52] = Cytotoxicity against human MCF7/ADR cells by SRB assay; type: functional; conditions: NCI/ADR-RES
[53] = tested on: MDA-MB-231; test: Cytotoxicity against human MDA-MB-231 cells by SRB assay; type: functional
[54] = Cytotoxicity against human Hs 578T cells by SRB assay; type: functional
[55] = tested on: MDA-MB-435; test: Cytotoxicity against human MDA-MB-435 cells by SRB assay; type: functional
[56] = tested on: MDA-N; test: Cytotoxicity against human MDA-N cells by SRB assay; type: functional
[57] = tested on: BT-549; test: Cytotoxicity against human BT549 cells by SRB assay; type: functional
[58] = tested on: T47D; test: Cytotoxicity against human T47D cells by SRB assay; type: functional
[59] = tested on: Leukemia cell; test: Cytotoxicity against human Leukemia cells by SRB assay; type: functional
[60] = tested on: NSCLC; test: Cytotoxicity against human NSCLC cells by SRB assay; type: functional
[61] = Cytotoxicity against human Colon cancer cells by SRB assay; type: functional; conditions: Cancer cell lines
[62] = Cytotoxicity against human CNS cancer cells by SRB assay; type: functional; conditions: Cancer cell lines
[63] = Cytotoxicity against human melanoma cells by SRB assay; type: functional; conditions: Melanoma cell
[64] = Cytotoxicity against human ovarian cancer cells by SRB assay; type: functional; conditions: Cancer cell lines
[65] = Cytotoxicity against human prostate cancer cells by SRB assay; type: functional; conditions: Cancer cell lines
[66] = Cytotoxicity against human breast cancer cells by SRB assay; type: functional; conditions: Cancer cell lines
[67] = Cytotoxicity against human renal cancer cells by SRB assay; type: functional; conditions: Cancer cell lines

## COC(C)(C)[C@@H](O)[C@H]1C[C@H](C)[C@@]2(CC[C@]3(C)[C@@H]2CC[C@@H]2[C@@]4(C)CC[C@@H](OC(C)=O)C(C)(C)[C@@H]4C[C@@H](O[C@@H]4O[C@H](COC(C)=O)[C@@H](O)[C@H](O)[C@H]4O)[C@]23C)O1
[1]
  GI50: 3.09 µM
[2]
  GI50: 2.34 µM
[3]
  GI50: 3.09 µM
[4]
  GI50: 2.29 µM
[5]
  GI50: 2.4 µM
[6]
  GI50: 2.19 µM
[7]
  GI50: 3.89 µM
[8]
  GI50: 5.5 µM
[9]
  GI50: 11.5 µM
[10]
  GI50: 12.9 µM
[11]
  GI50: 4.79 µM
[12]
  GI50: 9.33 µM
[13]
  GI50: 1.91 µM
[14]
  GI50: 3.8 µM
[15]
  GI50: 4.57 µM
[16]
  GI50: 2.14 µM
  TGI: 4.7 µM
[17]
  GI50: 0.204 µM
  TGI: 1.8 µM
[18]
  GI50: 2.69 µM
  TGI: 10 µM
[19]
  GI50: 2.4 µM
  TGI: 5.6 µM
[20]
  GI50: 1.86 µM
  TGI: 4 µM
[21]
  GI50: 1.32 µM
  TGI: 2 µM
[22]
  GI50: 6.46 µM
  TGI: 19.8 µM
[23]
  GI50: 6.03 µM
[24]
  GI50: 4.37 µM
[25]
  GI50: 10 µM
[26]
  GI50: 3.55 µM
[27]
  GI50: 5.37 µM
[28]
  GI50: 4.79 µM
[29]
  GI50: 11.2 µM
[30]
  GI50: 4.47 µM
[31]
  GI50: 6.17 µM
[32]
  GI50: 6.31 µM
[33]
  GI50: 8.32 µM
[34]
  GI50: 5.89 µM
[35]
  GI50: 5.25 µM
[36]
  GI50: 4.37 µM
[37]
  GI50: 4.79 µM
[38]
  GI50: 2.95 µM
[39]
  GI50: 3.16 µM
[40]
  GI50: 5.25 µM
[41]
  GI50: 4.79 µM
[42]
  GI50: 5.25 µM
[43]
  GI50: 13.2 µM
[44]
  GI50: 5.25 µM
[45]
  GI50: 5.37 µM
[46]
  GI50: 3.16 µM
[47]
  GI50: 4.17 µM
[48]
  GI50: 5.25 µM
[49]
  GI50: 2.82 µM
[50]
  GI50: 4.47 µM
[51]
  GI50: 2.14 µM
[52]
  GI50: 7.41 µM
[53]
  GI50: 11 µM
[54]
  GI50: 4.07 µM
[55]
  GI50: 3.63 µM
[56]
  GI50: 5.25 µM
[57]
  GI50: 12.6 µM
[58]
  GI50: 4.17 µM
[59]
  TGI: 32.1 µM
[60]
  TGI: 17.8 µM
[61]
  TGI: 6.9 µM
[62]
  TGI: 18.7 µM
[63]
  TGI: 20.2 µM
[64]
  TGI: 15.8 µM
[65]
  TGI: 13.1 µM
[66]
  TGI: 18.6 µM
[67]
  TGI: 17.9 µM
